Each structure is given as a SMILES string.

The record followed here is patent US11209437B2, “Fluorescent probe and preparation method and use thereof” (Fluorescence Diagnosis (shanghai) Biotech Company Ltd., priority 2016, dated 2021).

Data set [1] is described as follows: Viscosity responsiveness: fluorescence emission spectra of probes in glycerol and methanol. It is filed as physicochemical. The note with it: for Emission wavelength: excited at maximum excitation wavelength of each probe; for Fluorescence ratio in glycerol to methanol: probe 1×10^−5 M. In short, it runs like this:
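Each probe, from a 1×10^−2 M DMSO stock, was diluted to a final 1×10^−5 M in glycerol and in methanol. Fluorescence emission spectra were then recorded under identical conditions at each probe's maximum excitation wavelength.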

Data set [2] can be described thus: Fluorescence of free probe prior to binding to a protein tag. The data set is classed as physicochemical.
Another data set concerns the target T1, SNAP protein tags (Homo sapiens, UniProt P16455, A127T/A154D/C150Q/C62A/E30R/G131K/G132T/G153L/K125A/K32I/L33F/M134L/N157G/Q115S/Q116H/R128A/R135S/S151G/S152D/S159E).
T1 sequence (P16455 1-182 E30R/K32I/L33F/C62A/Q115S/Q116H/K125A/A127T/R128A/G131K/G132T/M134L/R135S/C150Q/S151G/S152D/G153L/A154D/N157G/S159E): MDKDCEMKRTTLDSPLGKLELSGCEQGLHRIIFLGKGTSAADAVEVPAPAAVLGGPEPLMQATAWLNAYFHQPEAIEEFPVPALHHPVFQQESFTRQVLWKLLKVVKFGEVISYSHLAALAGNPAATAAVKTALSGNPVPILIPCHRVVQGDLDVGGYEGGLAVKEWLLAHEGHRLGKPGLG
The data set is described as follows: Fluorescence activation of probe after incubation with corresponding protein tag (SNAP). It is filed as biochemical. The note with it: probe 5 μM, protein tag 10 μM, 37° C., 1 hr. In short, it runs like this: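 Probe (5 μM final) mixed with CLIP or SNAP protein tag (10 μM final) and incubated 1 hr at 37° C. Fluorescence intensity change measured by fluorescence spectrophotometer, with quantum yield of tag-bound probe determined.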

Data set [3] deals with HeLa cells with stable expression of protein tags. The experiment in a line: Labeling of HeLa cells expressing protein tags vs HeLa-WT cells, confocal imaging. The data set is classed as cell-based. The following applies: probe 5 μM, 37° C., 2 hrs. How it is done: HeLa cells with stable expression of protein tags and HeLa-WT cells (HeLa primitive cells, with no protein tag expressed) were implanted in a 14 mm glass-bottom 96-well cell culture plate and stabilized for 10 hrs. Probes 1, 15, 21, 30, 56, 60, 63, 88 were added to the media, respectively and diluted to 5 μMs. The cells were incubated in a carbon dioxide incubator at 37° C. for 2 hrs, and then a Leica TPS-8 confocal microscopy was used to image the fluorescent changes of the labeled cells. […] However, for HeLa cells with protein tags expressed shown by group A in FIG. 12, strong fluorescent signals could be detected, which are nearly 300 times stronger.

For a further data set, the system named is CLIP protein tags. The data set is described as follows: Fluorescence activation of probe after incubation with corresponding protein tag (CLIP). The data set is classed as biochemical. The note with it: probe 5 μM, protein tag 10 μM, 37° C., 1 hr. How it is done: Probes were mixed with corresponding protein tags to obtain mixed samples, in which the final probe concentration was 5 μM, and the final protein tag concentration was 10 μM. The mixed samples were incubated 37° C. for 1 hr, fluorescence spectrophotometer was used to detect the change in fluorescence intensity, and the results are shown in Table 1.
From the quantum yield of probe bound to protein tag, after reacting with the protein tags, the probes of the Examples could be detected to have significant signal enhancement in corresponding excitation transmission channels, the fluorescence activation multiple reached several hundreds to a thousand or more, and the brightness was high, which illustrates that after the probes of the Examples are bound to the protein tags, fluorescence of the probes can be activated, and the probes have good fluorescent molecular switching properties. In contrast, though the fluorescence of the reference probes could also be activated, the quantum yield of activated fluorescence was very low, and the brightness was very poor. In particular, in view of comparison results between probe 98 and reference probe 99, probe 101 and reference probe 102, probe 103 and reference probe 104, probe 105 and reference probe 106, probe 107 and reference probe 108, probe 109 and reference probe 110, probe 111 and reference probe 112, probe 114 and reference probe 115, probe 117 and reference probe 118, probe 120 and reference probe 121 in Table 1, for the same fluorescent dye, when the ligand is connected to the electron donor part of the fluorescent dye, the fluorescence activation brightness of the probe is much higher than the reference probe in which ligand is connected to the electron acceptor part of the fluorescent dye.

The subject of a further data set is HeLa cells. The data set is described as follows: Labeling of organelle-localized protein tags in HeLa cells without washing. The data set is classed as cell-based. The following applies: 0.2 μM probe, 2 hrs, no washing. From the text:
To verify that probes 1, 21, 48, 60, 66 and 77 can be used to label target proteins located by different organelles, HeLa cells were taken as an example to detect the effect of probes on labeling different subcellular proteins. HeLa cells were implanted 5000 cells per well in a 96-well glass-bottom cell culture plate. 14 hrs later, the cells were transfected with the plasmids encoding different organelle localized protein tags using Lipo2000; the original medium was removed 24 hrs after transfection, washed with a phenol-free red DMEM medium twice, and incubated with a phenol-free red medium containing 0.2 μM probes for 2 hrs, and then the cell labeling effects were detected by imaging with a leica TCS-8 confocal microscopy.

As for `CN(CCOC(=O)NCc1ccc(COc2nc(N)nc3[nH]cnc23)cc1)c1ccc2cc(/C=C(\C#N)C(=O)OC(C)(C)C)sc2c1` [probe 30], in data set [1], the Emission wavelength is 570 nm and the “Fluorescence ratio in glycerol to methanol” value (from here on “Fluorescence ratio”) turned out to be 1125. The “Quantum yield of free probe” value in data set [2] is given as less than 0.001. Moreover, at SNAP protein tags, the Fluorescence activation multiple turned out to be 535 and the “Quantum yield of probe bound to protein tag” value (shortened to “Quantum yield of probe bound”) is 0.55. In addition, in data set [3], the “Fluorescence signal in HeLa-WT cells (no protein tag expressed)” value is on record as “no corresponding fluorescence signal was detected” and the “Fluorescent signal in HeLa cells with protein tags expressed, relative to HeLa-WT” value (“Fluorescent signal … relative to HeLa-WT” below) is listed as roughly 300 times.

For the compound `CN(CCOC(=O)NCc1ccc(COc2nccc(N)n2)cc1)c1ccc2nc(/C=C(\C#N)c3nc4ccccc4s3)oc2c1` [probe 48], in data set [1], the Emission wavelength worked out at 625 nm and the “Fluorescence ratio” value is recorded as 180. Besides, in data set [2], the “Quantum yield of free probe” value is listed as less than 0.001. Moreover, in the data set with CLIP protein tags, the Fluorescence activation multiple is listed as 428 and the “Quantum yield of probe bound” value was determined as 0.16. In addition, the “Labeling of subcellular organelle structures” value (“Labeling” below) in the data set with HeLa cells is reported as “clearly display a variety of subcellular organelle structures without washing”.

Take `CN(CCOC(=O)NCc1ccc(COc2nc(N)nc3[nH]cnc23)cc1)c1ccc(C#C/C=C(\C#N)C(=O)OC(C)(C)C)cc1` [probe 56]: in data set [1], the Emission wavelength stood at 566 nm and the “Fluorescence ratio” value was determined as 436. For the same compound, in data set [2], the “Quantum yield of free probe” value was less than 0.001. On SNAP protein tags, the Fluorescence activation multiple is recorded as 989 and the “Quantum yield of probe bound” value stood at 0.39. Moreover, in data set [3], the “Fluorescence signal in HeLa-WT cells (no protein tag expressed)” value was “no corresponding fluorescence signal was detected” and the “Fluorescent signal … relative to HeLa-WT” value is roughly 300 times.

`CN(CCOC(=O)NCc1ccc(COc2nc(N)nc3[nH]cnc23)cc1)c1cc2sc3cc(/C=C(\C#N)C(=O)OC(C)(C)C)sc3c2s1` [probe 60]: in data set [1], the Emission wavelength came out at 620 nm and the “Fluorescence ratio” value was 1199. In addition, the “Quantum yield of free probe” value in data set [2] turned out to be 0.0011. For the same compound, on SNAP protein tags, the Fluorescence activation multiple is given as 751 and the “Quantum yield of probe bound” value is on record as 0.81. For the same compound, in data set [3], the “Fluorescence signal in HeLa-WT cells (no protein tag expressed)” value is “no corresponding fluorescence signal was detected” and the “Fluorescent signal … relative to HeLa-WT” value is given as roughly 300 times. Besides, in the data set with HeLa cells, the “Labeling” value is recorded as “clearly display a variety of subcellular organelle structures without washing”.

In the case of `CN(CCOC(=O)NCc1ccc(COc2nc(N)nc3[nH]cnc23)cc1)c1ccc2c(c1)sc1cc(/C=C(/C#N)C(=O)OC(C)(C)C)sc12` [probe 63], in data set [1], the Emission wavelength came out at 620 nm and the “Fluorescence ratio” value is listed as 531. Further, in data set [2], the “Quantum yield of free probe” value is given as 0.0015. In addition, at SNAP protein tags, the Fluorescence activation multiple worked out at 486 and the “Quantum yield of probe bound” value is listed as 0.73. In addition, in data set [3], the “Fluorescence signal in HeLa-WT cells (no protein tag expressed)” value is “no corresponding fluorescence signal was detected” and the “Fluorescent signal … relative to HeLa-WT” value is roughly 300 times.

As for `CN(CCOC(=O)NCc1ccc(COc2nc(N)nc3[nH]cnc23)cc1)c1ccc(-c2ccc(/C=C(\C#N)C(=O)OC(C)(C)C)s2)cc1` [probe 66], in data set [1], the Emission wavelength worked out at 620 nm and the “Fluorescence ratio” value amounted to 386. For the same compound, the “Quantum yield of free probe” value in data set [2] is reported as less than 0.001. In addition, at SNAP protein tags, the Fluorescence activation multiple came out at 512 and the “Quantum yield of probe bound” value was determined as 0.37. The “Labeling” value in the data set with HeLa cells was “clearly display a variety of subcellular organelle structures without washing”.

Consider `CN(CCOC(=O)NCc1ccc(COc2nc(N)nc3[nH]cnc23)cc1)c1ccc(-c2ccc(/C=C(\C#N)C(=O)OC(C)(C)C)s2)s1` [probe 77], for which, in data set [1], the Emission wavelength is on record as 655 nm and the “Fluorescence ratio” value turned out to be 279. The “Quantum yield of free probe” value in data set [2] is listed as 0.0014. Further, at SNAP protein tags, the Fluorescence activation multiple is on record as 268 and the “Quantum yield of probe bound” value was 0.38. Moreover, in the data set on HeLa cells, the “Labeling” value is listed as “clearly display a variety of subcellular organelle structures without washing”.

Take `CC1=CC(C)(C)N(CCOC(=O)NCc2ccc(COc3nccc(N)n3)cc2)c2ccc(/C=C(\C#N)c3nc4ccccc4s3)cc21` [probe 91]: in data set [1], the Emission wavelength amounted to 612 nm and the “Fluorescence ratio” value is recorded as 163. Moreover, in data set [2], the “Quantum yield of free probe” value is reported as 0.0013. Moreover, in the data set on CLIP protein tags, the Fluorescence activation multiple is given as 192 and the “Quantum yield of probe bound” value stood at 0.24.

Regarding `CN(CCOC(=O)NCc1ccc(COc2nccc(N)n2)cc1)c1cc2c(s1)-c1sc(/C=C(/C#N)C(=O)OC(C)(C)C)cc1C2(C)C` [probe 95], in data set [1], the Emission wavelength is on record as 645 nm and the “Fluorescence ratio” value came out at 431. The “Quantum yield of free probe” value in data set [2] is on record as less than 0.001. In addition, in the data set with CLIP protein tags, the Fluorescence activation multiple was determined as 553 and the “Quantum yield of probe bound” value is recorded as 0.42.

With `CN(CCOC(=O)NCc1ccc(COc2nccc(N)n2)cc1)c1cc2c(s1)-c1sc(/C=C(/C#N)c3nc4ccccc4o3)cc1C2(C)C` [probe 96], in data set [1], the Emission wavelength was 675 nm and the “Fluorescence ratio” value was determined as 125. The “Quantum yield of free probe” value in data set [2] is on record as less than 0.001. Further, in the data set with CLIP protein tags, the Fluorescence activation multiple came out at 435 and the “Quantum yield of probe bound” value came to 0.31.

Take `CN(CCOC(=O)NCc1ccc(COc2nccc(N)n2)cc1)c1cc2c(s1)-c1sc(/C=C(/C#N)c3nc4ccccc4s3)cc1C2(C)C` [probe 97]: in data set [1], the Emission wavelength is given as 700 nm and the “Fluorescence ratio” value is 261. The “Quantum yield of free probe” value in data set [2] is recorded as less than 0.001. For the same compound, in the data set on CLIP protein tags, the Fluorescence activation multiple worked out at 812 and the “Quantum yield of probe bound” value came to 0.23.
